{"source": "patent US9730899B2", "about": "“Controlled release pharmaceutical composition with resistance against the influence of ethanol employing a coating comprising neutral vinyl polymers and excipients” (Evonik Roehm GmbH, priority 2009, dated 2017)", "origin": "cited, not measured here", "details": "USP classification, between 15° C. and 25° C.", "note": "Where a name gives a salt, the structure may show the parent alone. Read-outs that look alike come from different tables or passages of the source.", "data": [{"smiles": "COCCc1ccc(OCC(O)CNC(C)C)cc1", "note": "(centres unmarked) [Metoprolol succinate]", "values": [{"measurement": "Solubility in ethanol", "result": "Sparingly soluble (more than 30 to 100)"}, {"measurement": "Solubility in water", "result": "Freely soluble (from 1 to 10)"}, {"measurement": "Solubility in ethanol", "setting": "listed as metoprolol", "result": "sparingly soluble"}]}, {"smiles": "NC(=O)N1c2ccccc2C=Cc2ccccc21", "note": "[Carbamazepine]", "values": [{"measurement": "Solubility in ethanol", "result": "Soluble (more than 10 to 30)"}, {"measurement": "Solubility in water", "result": "Practically insoluble (more than 10.000)"}]}, {"smiles": "C=CCN1CC[C@]23c4c5ccc(O)c4O[C@H]2C(=O)CC[C@@]3(O)[C@H]1C5", "note": "[Naloxone]", "values": [{"measurement": "Solubility in ethanol", "result": "Slightly soluble (more than 100 to 1000)"}, {"measurement": "Solubility in water", "result": "Soluble (more than 10 to 30)"}, {"measurement": "Solubility in ethanol", "setting": "listed as naloxone", "result": "slightly soluble"}]}, {"smiles": "COc1ccc([C@@H]2Sc3ccccc3N(CCN(C)C)C(=O)[C@@H]2OC(C)=O)cc1", "note": "[Diltiazem HCl]", "values": [{"measurement": "Solubility in water", "result": "Freely soluble (from 1 to 10)"}, {"measurement": "Solubility in ethanol", "setting": "HCl", "result": "Sparingly soluble (more than 30 to 100)"}, {"measurement": "Solubility in ethanol", "setting": "listed as diltiazem, HCl", "result": "sparingly soluble"}]}, {"smiles": "Cn1c(=O)c2[nH]cnc2n(C)c1=O", "note": "[Theophylline]", "values": [{"measurement": "Solubility in ethanol", "result": "Sparingly soluble (more than 30 to 100)"}, {"measurement": "Solubility in water", "result": "Slightly soluble (more than 100 to 1000)"}, {"measurement": "Solubility in ethanol", "setting": "listed as theophyllin", "result": "sparingly soluble"}]}]}
